Measurements: paper PMC9020739, “Identification of a two-component regulatory system involved in antimicrobial peptide resistance in Streptococcus pneumoniae” (PLoS Pathogens, 2022)
In brackets after ≈: the same amount, converted by molar mass. Where a SMILES comes first, the peptide text is derived from it. Bridges are numbered along the chain shown (N, C = ends). [ ]: non-standard residue; d: D form. The star is where a group is joined. Ileψ(thiazoline)Cys = CC[C@H](C)[C@H](N)C1=N[C@H](C(=O)*)CS1; dOrn = NCCC[C@@H](N)C(=O)O

Columns and labels:
Format in all cases: cell-based, Streptococcus pneumoniae
[1] = test system: bceAB and tcs01 genes in S. pneumoniae D39 WT; assay: Quantification of gene expression by qPCR; details: D39 wild-type, bacitracin 1 μg/ml for 5, 15 and 30 min, relative to untreated control
Experimental: (§1) S. pneumoniae D39 WT and Δtcs01 strains were routinely grown to OD600nm = 0.3 in THY. Then 1 μg/mL of bacitracin was added to the growth media for up to 30 min. Samples were taken at time points shown in the results section. Next, the cultures were mixed with RNA protect (Qiagen) at 1:1 ratio and incubated at room temperature for 5 min and centrifuged for 10 min at 3, 200 g at 4°C. The supernatant was decanted and the pellet was stored at -80°C. The bacteria were resuspended in 100 μL of sterile Tris-EDTA (TE), containing 15 mg/mL lysozyme (Sigma) then 20 μL of Proteinase K (20 mg/mL) (Roche) were added. The sample was vortexed 5 times for 10 sec at two-minutes intervals. Then 350 μL of lysis buffer from the Nucleospin RNA kit (Macherey-Nagel) were added to the sample with 3.5 μL of β-mercaptoethanol and 25 mg of glass beads (Sigma). The cells were lysed by continual vortexing for 5 min. The mRNA was extracted according to the manufacturer’s instructions. After elution, RNA samples were incubated with 5 μL of DNAse for 20 min at room temperature, then inactivated by heating for 70°C for 5 min. RNA concentration was measured using Nanovue (GE Healthcare). For cDNA synthesis 1 μg of RNA was generally used with the SuperScript III kit (Invitrogen) containing a reverse transcriptase, a set of primers, dNTPs, MgCl2 random hexamers and […] after the cDNA generation according to manufacturer’s instructions. Samples were then stored at -20°C. qPCR measurements were done with 2.5 μL of cDNA mixed with 1 μL (3 μM final) of forward and reverse primers, 5 μL iQ SYBR Green Supermix (BioRad) and 0.5 μL water using the CFX Connect Optical Module (BioRad) program as follows: 95°C for 3 min, then a repeat 40 times of 95°C for 10 sec, 55°C for 30 sec, and a fluorescence reading.

[2] = test system: bceAB genes in S. pneumoniae D39 Δtcs01; assay: Quantification of gene expression by qPCR; details: D39 Δtcs01 knockout; bacitracin 1 μg/ml
Experimental: as §1

S. pneumoniae R6 WT = details: R6 strain
Experimental: (§2) The MIC of various antimicrobial peptides for R6, R800 and D39 strains was determined by classical 2-fold broth dilution method. Cells were first grown in Todd-Hewitt medium at 37°C without agitation and in anaerobic conditions until the absorbance reaches approximatively 0.3. Complementation strains were grown with 0.5 μM ComS inducer until the appropriate OD. Cells were then diluted at final OD600nm = 0.002 in 96-well plates containing 300 μL of Todd-Hewitt medium (and 2 μM ComS inducer for the complementation strains) with serial dilutions of antimicrobial peptides. Pneumococcal growth was monitored by a microplate reader (TECAN) at 37°C without agitation. The absorbance was followed at 600 nm every 15 min for 15 h.

[3] = test system: S. pneumoniae R800 Δhk01-PcomX-hk01
Experimental: as §2

S. pneumoniae R6 ΔbceAB = details: R6 strain; 2-fold broth dilution, Todd-Hewitt medium, 37°C, 15 h; two to four biological replicates, each technical duplicates
Experimental: as §2

S. pneumoniae D39 ΔbceAB = details: D39 strain; 2-fold broth dilution, Todd-Hewitt medium, 37°C, 15 h; two to four biological replicates, each technical duplicates
Experimental: as §2

[4] = test system: S. pneumoniae R800 ΔbceAB; details: R800 strain; 2-fold broth dilution, Todd-Hewitt medium, 37°C, 15 h; at least biological triplicates, each technical duplicates
Experimental: as §2

S. pneumoniae D39 WT = details: D39 strain
Experimental: as §2

[5] = test system: S. pneumoniae R800 bceAB-gfp; details: R800 strain; 2-fold broth dilution, Todd-Hewitt medium, 37°C, 15 h; at least biological triplicates, each technical duplicates
Experimental: as §2

[6] = test system: S. pneumoniae D39 ΔbceAB/tcs01; details: D39 strain; 2-fold broth dilution, Todd-Hewitt medium, 37°C, 15 h; two to four biological replicates, each technical duplicates
Experimental: as §2

S. pneumoniae R800 WT = details: R800 strain; 2-fold broth dilution, Todd-Hewitt medium, 37°C, 15 h; at least biological triplicates, each technical duplicates
Experimental: as §2

S. pneumoniae R800 Δhk01 = details: R800 strain; 2-fold broth dilution, Todd-Hewitt medium, 37°C, 15 h; at least biological triplicates, each technical duplicates
Experimental: as §2

[7] = test system: S. pneumoniae R800 ΔbceAB-Δhk01-PcomX-hk01; details: R800 complementation strain, 2 μM ComS inducer; 2-fold broth dilution, Todd-Hewitt medium, 37°C, 15 h; at least biological triplicates, each technical duplicates
Experimental: as §2

[8] = test system: S. pneumoniae R6 ΔbceAB/tcs01; details: R6 strain; 2-fold broth dilution, Todd-Hewitt medium, 37°C, 15 h; two to four biological replicates, each technical duplicates
Experimental: as §2

S. pneumoniae R6 Δtcs01 = details: R6 strain; 2-fold broth dilution, Todd-Hewitt medium, 37°C, 15 h; two to four biological replicates, each technical duplicates
Experimental: as §2

S. pneumoniae D39 Δtcs01 = details: D39 strain; 2-fold broth dilution, Todd-Hewitt medium, 37°C, 15 h; two to four biological replicates, each technical duplicates
Experimental: as §2

CC[C@H](C)[C@H](N)C1=N[C@H](C(=O)N[C@@H](CC(C)C)C(=O)N[C@H](CCC(=O)O)C(=O)N[C@H](C(=O)N[C@H]2CCCCNC(=O)[C@H](CC(N)=O)NC(=O)[C@@H](CC(=O)O)NC(=O)[C@H](Cc3cnc[nH]3)NC(=O)[C@@H](Cc3ccccc3)NC(=O)[C@H]([C@@H](C)CC)NC(=O)[C@@H](CCCN)NC2=O)[C@@H](C)CC)CS1 [bacitracin] ({Ileψ(thiazoline)Cys}-L[dE]IK[dOrn]I[dF]H[dD]N; lactam 4-C (inferred); N-terminus assumed)
Transcription of the tcs01 genes [1]: unaffected | Transcription of the bceAB genes ([1]; n = 6-8): strong upregulation | Transcription of the bceAB genes [2]: failed to upregulate | Minimum Inhibitory Concentration, WT (S. pneumoniae R6 WT; 2-fold broth dilution, Todd-Hewitt medium, 96-well plates, start OD600 0.002, 37°C, A600 followed 15 h, two to four biological replicates, each technical duplicates): 8 µg/mL | Fold sensitivity displayed by the KO strains (S. pneumoniae R6 WT; KO strains versus WT MIC): 8 | Resistance as compared to the WT strain ([3]; R800-Δhk01-PcomX-rr01-hk01 versus R800 WT, from MICs): 64 fold | MIC, Δhk01-PcomX-hk01 ([3]; R800 complementation strain, 2 μM ComS inducer, 2-fold broth dilution, Todd-Hewitt medium, 37°C, 15 h, at least biological triplicates, each technical duplicates): 256 µg/mL (≈ 180 µM) | Minimum Inhibitory Concentration, ΔbceAB (S. pneumoniae R6 ΔbceAB): 1 µg/mL | Minimum Inhibitory Concentration, ΔbceAB (S. pneumoniae D39 ΔbceAB): 1 µg/mL | MIC, ΔbceAB [4]: 1 µg/mL (≈ 0.703 µM) | Minimum Inhibitory Concentration, WT (S. pneumoniae D39 WT; 2-fold broth dilution, Todd-Hewitt medium, 37°C, 15 h, two to four biological replicates, each technical duplicates): 4 µg/mL | Fold sensitivity diplayed by the KO strains (S. pneumoniae D39 WT; KO strains versus WT MIC): 4 | MIC, bceAB-gfp [5]: 4 µg/mL (≈ 2.81 µM) | Minimum Inhibitory Concentration, ΔbceAB/tcs01 [6]: 1 µg/mL | MIC, WT (S. pneumoniae R800 WT): 4 µg/mL (≈ 2.81 µM) | MIC, Δhk01 (S. pneumoniae R800 Δhk01): 1 µg/mL (≈ 0.703 µM) | MIC, ΔbceAB-Δhk01-PcomX-hk01 [7]: 1 µg/mL (≈ 0.703 µM) | Minimum Inhibitory Concentration, ΔbceAB/tcs01 [8]: 1 µg/mL | Minimum Inhibitory Concentration, Δtcs01 (S. pneumoniae R6 Δtcs01): 1 µg/mL | Minimum Inhibitory Concentration, Δtcs01 (S. pneumoniae D39 Δtcs01): 1 µg/mL
